{"source": "patent US10702512B2", "about": "“Treatment of debilitating fatigue” (A. CARLSSON RESEARCH AB, priority 2015, dated 2020)", "test_system": "ME/CFS patients", "experiment": "Coding test (WAIS subtest)", "format": "in vivo, human", "parameters": "key to Coding test score, min / Coding test score, max / Coding test, Difference, increased mean / Coding test score, mean / Coding test score, median: number of symbols correctly copied within 90 seconds", "protocol": "Next, patients were evaluated using a neuropsychological test. 61 patients were included in a neuropsychological examination. All subjects were tested once in connection with the randomization with the BNIS neuropsychological screening test. 20-30 minutes was required for this test. With the purpose of measuring the cognitive effects of the OSU6162 treatment six more tests were distributed at a first occasion before the initiation of treatment and at a second occasion after the treatment was completed. These tests required 20 minutes each. All tests were performed by a neuropsychologist. The Coding test is a subtest from WAIS, Wechsler Adult Intelligence Scale and measures the processing speed. The performance reflects abilities such as visual-motor coordination, motor and mental speed and working memory. It requires the subject to copy, as quickly and correctly as possible, nine symbols, one by one in 93 boxes, placed below each number. The symbol connected with the numbers is available. The score is the number of symbols registered within 90 seconds."}
{"smiles": "CCCN1CCC[C@@H](c2cccc(S(C)(=O)=O)c2)C1.Cl", "note": "[OSU6162, (3S)-3-[3-(methylsulfonyl)-phenyl]-1-propylpiperidine hydrochloride]", "values": [{"measurement": "Coding test score, max", "setting": "after treatment", "result": 93}, {"measurement": "Coding test score, mean", "setting": "after treatment", "result": 56.29}, {"measurement": "Coding test score, median", "setting": "after treatment", "result": 56}, {"measurement": "Coding test score, min", "setting": "after treatment", "result": 37}, {"measurement": "Coding test, Difference, increased mean", "setting": "after vs before treatment", "result": 5}, {"measurement": "Coding test difference between OSU6162 and placebo groups", "setting": "before and after treatment", "result": "No significant differences"}, {"measurement": "Coding test score, max", "setting": "before treatment", "result": 80}, {"measurement": "Coding test score, mean", "setting": "before treatment", "result": 51.42}, {"measurement": "Coding test score, median", "setting": "before treatment", "result": 51}, {"measurement": "Coding test score, min", "setting": "before treatment", "result": 31}]}
